Experiment [1] deals with T1, PPARγ (Homo sapiens, UniProt P37231).
T1 construct: gene PPARG; GeneBLAzer bla HEK 293T reporter line (Invitrogen)
T1 sequence (P37231 238-505 limits assumed): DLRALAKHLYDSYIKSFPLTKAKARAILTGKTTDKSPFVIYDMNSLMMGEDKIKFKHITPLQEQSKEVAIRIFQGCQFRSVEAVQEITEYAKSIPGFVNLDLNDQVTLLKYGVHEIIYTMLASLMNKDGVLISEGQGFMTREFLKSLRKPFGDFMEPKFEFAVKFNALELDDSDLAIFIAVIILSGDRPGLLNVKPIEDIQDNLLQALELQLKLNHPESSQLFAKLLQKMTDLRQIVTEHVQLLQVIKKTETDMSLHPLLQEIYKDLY
Nature of the experiment: GAL-LBD beta-lactamase reporter qHTS, HEK […], […] nm ratio. The class given is cell-based. (In general: Quantitative high-throughput screening tests each substance at several concentrations.)

Experiment [2] deals with T1, PPARγ. Nature of the experiment: cell-based. Conditions: with rosiglitazone 0.05 uM; antagonist mode, known agonist added; read-out: Control Titration EC50/IC50 (µM), antagonist mode. On the set-up: species or system HEK 293T; GeneBLAzer GAL4-LBD beta-lactamase reporter, antagonist mode with added agonist, 460/530 nm FRET ratio. The text has this: (§1) β-Lactamase reporter gene assay and qHTS. […] All cell culture reagents were obtained from Invitrogen.

The target in the next experiment is T2, LXRβ (Homo sapiens, UniProt P55055).
T2 construct: gene NR1H2; GeneBLAzer bla HEK 293T reporter line (Invitrogen)
T2 sequence (P55055 222-460 limits assumed): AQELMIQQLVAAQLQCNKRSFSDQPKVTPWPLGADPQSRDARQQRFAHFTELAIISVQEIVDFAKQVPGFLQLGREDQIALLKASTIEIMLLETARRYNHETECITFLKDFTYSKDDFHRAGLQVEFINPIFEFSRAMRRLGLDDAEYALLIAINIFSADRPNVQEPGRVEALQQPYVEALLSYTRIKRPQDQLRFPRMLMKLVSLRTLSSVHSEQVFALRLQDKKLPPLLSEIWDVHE
Nature of the experiment: GAL-LBD beta-lactamase reporter qHTS, HEK […], […] nm ratio. The class given is cell-based. Conditions: agonist mode; […]-18 h at […] °C; unreliable.

The next experiment deals with T3, GR (Homo sapiens, UniProt P04150).
T3 construct: gene NR3C1; GeneBLAzer bla HEK 293T reporter line (Invitrogen)
T3 sequence (P04150 521-777 limits assumed): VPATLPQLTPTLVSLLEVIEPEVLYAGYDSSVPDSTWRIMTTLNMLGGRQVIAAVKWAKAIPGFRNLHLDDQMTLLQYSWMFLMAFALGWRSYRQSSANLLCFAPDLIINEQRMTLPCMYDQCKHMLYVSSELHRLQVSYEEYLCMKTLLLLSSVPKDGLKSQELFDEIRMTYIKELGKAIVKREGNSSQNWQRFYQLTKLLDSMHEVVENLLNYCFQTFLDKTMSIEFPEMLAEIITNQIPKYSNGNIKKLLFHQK
The experiment is described as above. The class given is cell-based.

Experiment [3] addresses T4, PPARδ (Homo sapiens, UniProt Q03181).
T4 construct: gene PPARD; GeneBLAzer bla HEK 293T reporter line (Invitrogen)
T4 sequence (Q03181 139-441 limits assumed): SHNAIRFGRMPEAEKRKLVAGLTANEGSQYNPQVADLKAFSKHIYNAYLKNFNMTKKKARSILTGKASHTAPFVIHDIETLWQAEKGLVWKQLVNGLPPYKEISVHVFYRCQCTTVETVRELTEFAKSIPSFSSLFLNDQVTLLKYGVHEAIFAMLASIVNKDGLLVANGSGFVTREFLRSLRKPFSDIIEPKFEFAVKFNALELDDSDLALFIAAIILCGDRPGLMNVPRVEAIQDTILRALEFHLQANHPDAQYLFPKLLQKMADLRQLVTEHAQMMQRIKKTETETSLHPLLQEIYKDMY
The experiment is described as above. The class given is cell-based.

For experiment [4], the target named is T4, PPARδ. Nature of the experiment: cell-based. Conditions: agonist mode; read-out: Control Titration EC50/IC50 (µM), agonist mode. Details: species or system HEK 293T; GeneBLAzer GAL4-LBD beta-lactamase reporter, agonist mode, 460/530 nm FRET ratio.
Description: as §1

The target in experiment [5] is T1, PPARγ. Nature of the experiment: GAL-LBD beta-lactamase reporter qHTS, HEK […], […] nm ratio. The class given is cell-based. This is another data set of the same source.
The next experiment has as its target T5, RXRα (Homo sapiens, UniProt P19793).
T5 construct: gene RXRA; GeneBLAzer bla HEK 293T reporter line (Invitrogen)
T5 sequence (P19793 225-462 limits assumed): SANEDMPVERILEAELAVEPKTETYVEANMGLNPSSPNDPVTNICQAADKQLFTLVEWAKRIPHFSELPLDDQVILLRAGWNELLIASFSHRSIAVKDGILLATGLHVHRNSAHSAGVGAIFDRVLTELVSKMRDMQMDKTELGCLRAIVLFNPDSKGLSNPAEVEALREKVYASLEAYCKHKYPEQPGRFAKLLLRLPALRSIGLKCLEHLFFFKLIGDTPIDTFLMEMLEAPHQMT
The description is as above. The class given is cell-based.

Experiment [6] has as its target T4, PPARδ. Nature of the experiment: cell-based. Details: species or system HEK 293T; GeneBLAzer GAL4-LBD beta-lactamase reporter, antagonist mode with added agonist, 460/530 nm FRET ratio. Conditions: with L165041 0.5 uM; antagonist mode, known agonist added; read-out: Control Titration EC50/IC50 (µM), antagonist mode.
Description: as §1

Another experiment addresses T6, ERα (Homo sapiens, UniProt P03372).
T6 construct: gene ESR1; GeneBLAzer bla HEK 293T reporter line (Invitrogen)
T6 sequence (P03372 311-547 limits assumed): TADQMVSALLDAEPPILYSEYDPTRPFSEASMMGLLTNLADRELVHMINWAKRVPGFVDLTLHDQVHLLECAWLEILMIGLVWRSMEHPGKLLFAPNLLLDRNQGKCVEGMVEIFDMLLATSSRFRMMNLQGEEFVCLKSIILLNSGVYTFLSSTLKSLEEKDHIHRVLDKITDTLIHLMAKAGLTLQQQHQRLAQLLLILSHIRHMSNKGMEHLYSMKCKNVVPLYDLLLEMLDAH
Nature of the experiment: GAL-LBD beta-lactamase reporter qHTS, HEK […], […] nm ratio. The class given is cell-based.

Consider twelve molecules from publication PMC3237348, “Chemical Genomics Profiling of Environmental Chemical Modulation of Human Nuclear Receptors” (Environmental Health Perspectives, 2011).

Each structure is given as a SMILES string.

On to `O=C(Nc1ccccc1)c1cc([N+](=O)[O-])ccc1Cl` [GW9662], for which the figures for the IC50 on PPARγ [1] and on PPARγ [2] were 12600 nM and 0.011 µM, respectively.

Consider `O=S(=O)(c1ccccc1)N(CC(F)(F)F)c1ccc(C(O)(C(F)(F)F)C(F)(F)F)cc1` [TO-901317], for which the EC50 at LXRβ turned out to be 250 nM.

Regarding `C[C@]12C=CC(=O)C=C1CC[C@H]1[C@@H]3C[C@@H](O)[C@](O)(C(=O)CO)[C@@]3(C)C[C@H](O)[C@@]12F` [Triamcinolone], the EC50 on GR amounted to 110 nM.

As to `CCCc1c(OCCCOc2ccc(OCC(=O)O)cc2)ccc(C(C)=O)c1O` [l-165,041], the results for the EC50 at PPARδ [3] and at PPARδ [4] were 90 nM and 0.036 ± 0.006 µM, respectively.

Turning to `CC(C)C[C@H](NC(=O)OCC1c2ccccc2-c2ccccc21)C(=O)O` [Fmoc-l-leucine], the EC50 at PPARγ [5] was found to be 11200 nM.

On to `CC1(C)CCC(C)(C)c2cc(C(=O)Nc3ccc(C(=O)O)cc3)ccc21` [AM-580], for which the EC50 at RXRα stood at 620 nM.

As for `CC(C)CCC[C@@H](C)[C@H]1CC[C@H]2[C@@H]3CC=C4C[C@@H](O)CC[C@]4(C)[C@H]3CC[C@]12C` [Cholesterol], the EC50 at LXRβ stood at 39810 nM.

On to `CCCCCCCCCCCCCCC(Br)C(=O)O` (centres unmarked) [2-Bromohexadecanoic acid], for which the EC50 at PPARδ [3] is 28200 nM.

Regarding `CC(C)c1ccc2c(c1)c(SC(C)(C)C)c(CC(C)(C)C(=O)O)n2Cc1ccc(Cl)cc1` [MK886], at PPARδ [6], the IC50 was determined as 54 µM.

As for `CC(C)(c1ccc(OCC2CO2)cc1)c1ccc(OCC2CO2)cc1` (centres unmarked) [BADGE], at PPARγ [1] (antagonist mode, nonsaturating agonist pre-added, […]-18 h at […] °C), the IC50 stood at 50100 nM.

In the case of `CCCc1c(-c2ccc(O)cc2)nn(-c2ccc(O)cc2)c1-c1ccc(O)cc1` [1,3,5-tris(4-Hydroxyphenyl)-4-propyl-1H-pyrazole], the EC50 at ERα stood at 100 nM.

Take `C/C(=C\c1ccc(C(=O)O)cc1)c1ccc2c(c1)C(C)(C)CCC2(C)C` [TTNPB, (E)-4-[2-(5,6,7,8-tetrahydro-5,5,8,8-tetramethyl-2-naphthylenyl)-1-propenyl] benzoic acid]: the EC50 at RXRα was found to be 710 nM.
